These results are taken from patent US20210338557A1, “Oxidized Derivatives of GDF-11 Fragments” (Avon Products, Inc., priority 2019, published 2021).

Where a SMILES comes first, the peptide text is derived from it. [ ]: non-standard residue; d: D form. Met(O2) = CS(=O)(=O)CC[CH](N)C(=O)O; Met(O) = CS(=O)CC[CH](N)C(=O)O

For experiment [1], the system named is Human dermal fibroblast cells. Briefly: Hyaluronic acid (HA) secretion by human dermal fibroblasts, HTRF HABP kit. Conditions: 48 h, relative to vehicle control. It counts as cell-based. The protocol:
(§1) Human dermal fibroblast cells were grown in a 96 well plate in DMEM media (available from Corning, N.Y.) supplemented with 10% Fetal Bovine Serum (FBS) and L-glutamine (0.07×10^5 cells/plate). After reaching about 75% confluence, cells were transferred into DMEM media without FBS and incubated for 4-6 hours. Next, cells were treated with a peptide or prodrug thereof (MVV, Ac-MVV) or peptide derivative or prodrug thereof (M(O)2VV, Ac-M(O)2VV, Ac-M(O)VV) at 0.00001%, 0.0001%, 0.0005%, or 0.001% final concentration in DMEM media without FBS for 48 h. After treatment, the media were collected and cell viability was measured using MTT. The amount of collagen or hyaluronic acid (HA) secreted was tested in the media using an HTRF human pro-collagen I kit or an HTRF HABP kit, respectively (each available from Cisbio Inc., Bedford, Mass.).
The results for HA production following administration to the fibroblasts are summarized in Table 13 as percent change of HA production for each active relative to vehicle control. p values are given with respect to the change in HA on the fibroblasts with vehicle control administration or with respect to […] administration.
For orientation: Time-resolved FRET reads energy transfer from a long-lived donor to a nearby acceptor.

Experiment [2] has as its system Human dermal fibroblast cells. Briefly: Collagen (pro-collagen I) secretion by human dermal fibroblasts, HTRF human pro-collagen I kit. Conditions: 48 h, relative to vehicle control. It counts as cell-based. The protocol:
as §1
The results for collagen production following administration to the fibroblasts are summarized in Table 14 as percent change of collagen production for each active relative to vehicle control. p values are given with respect to the change in collagen on the fibroblasts with vehicle control administration or MVV administration.

The subject of experiment [3] is Human 3D skin EFT400FT tissues. Briefly: HA production in full thickness 3D skin cultures, HTRF HABP kit. It counts as cell-based. The note with it: topical daily for 3 days, n=6. The protocol:
A series of experiments was conducted to assess the effects of peptide derivatives on the production of hyaluronic acid (HA) on full thickness 3D skin cultures. Five different treatment regimens were assessed: (1) 0.01% by weight M(O)2VV in vehicle; (2) 0.002% by weight M(O)2VV in vehicle; (3) 0.01% by weight Ac-M(O)2VV in vehicle; (4) 0.002% by weight Ac-M(O)2VV in vehicle; and (5) vehicle alone (DMSO). Compositions at the indicated weight percentages in DMSO were applied to 3D skin equivalents daily for 3 consecutive days.
Human 3D skin EFT400FT tissues (MatTek, MA) were cultured following the manufacturer's instructions. Each treatment regimen was topically applied to six 3D skin samples. Different 3D skin samples were assigned to one of treatment regimens (1)-(5) as described above, with six skin tissue models allocated to each treatment regimen (i.e., n=6). Following treatment, media were collected and the amount of hyaluronic acid secreted from the cells was measured using a HTRF HABP kit (available from Cisbio Inc., Bedford, Mass.).
The results for HA production are shown in Table 15. p values are given in relation to administration with vehicle control alone or in relation to MVV.

Experiment [4] concerns explanted skin tissue. The experiment can be described thus: Ex vivo skin explant collagen score (papillary dermis, image analysis). It counts as cell-based, human. Conditions: for Collagen score, Mean: days 0, 1, 2, 5, 7. The procedure:
(§2) Samples of explanted skin tissue were obtained from an abdominal plasty. Samples (33 in total) were maintained in tissue culture medium at 37° C. in a humid, 5% CO2 atmosphere for the duration of the study.
(§3) The skin tissue explants were then distributed into appropriate controls or treated samples in triplicates. The control received only a vehicle (DMSO), and the treatment samples received vehicle comprising either M(O)2VV or Ac-M(O)2VV at 0.0005%, 0.001%, or 0.01% by weight of the composition. Administration of vehicle or vehicle with the peptide occurred on days 0, 1, 2, 5, and 7.
(§4) Stained tissue sections (in triplicates) were examined for qualitative and semi-qualitative differences between treated and control samples and low and high power using Zeiss Mimax and Midi BF microscope and software system. For HA evaluation, samples were washed and processed with Methylthiazolyldiphenyl-tetrazolium bromide (MTT). MTT is converted to water-insoluble dark blue colored MTT-formazan by mitochondrial dehydrogenases. Subsequently the blue crystals have been solubilized and the color intensity, that is directly proportional to skin vitality, has been measured with a plate reader at a wavelength of 570 nm. For each analyzed skin sample the obtained absorbance value has been normalized upon the weight in grams. Twelve skin suctions were stained with an acian blue stain that dyes acid mucins such as hyaluronan to develop the HA score. Dermal collagen was also measured using a picrosirius red histochemical stain that dyes collagen fibers in purple-red. The papillary dermis was selected for the analysis as thi sis the portion of the dermis more subjected to collagen variation in response to treatment.
(§5) 8-bit grey-scale photomicrographs were captured and transformed from RGB to the standard CIE L*a*b* color space. The L* value for each pixel in the ROI was evaluated using ImageJ software (National Institutes of Health, Bethesda, Md.) with the Color Inspector 3D plug-in. The amount of hyaluron present was evaluated based on the intensity and distribution of blue color in the dermis using an imaging method analogous to that used for procollagen I. Scores reflecting the amount of hyaluronan detected were assigned using an image analysis algorithm proprietary to Cutech Srl. Higher HA scores is indicative of a higher HA content. Similarly, the amount of procollagen I was evaluated based on the intensity and distribution of immunostained procollagen I in the area corresponding to the papillary dermis, just below the epidermis. As above, 8-bit grey-scale photomicrographs were captured and transformed from RGB to the standard CIE L*a*b* color space. The L* value for each pixel in the ROI was evaluated using ImageJ software (National Institutes of Health, Bethesda, Md.) with the Color Inspector 3D plug-in. Scores reflecting the amount of procollagen I detected were assigned using an image analysis algorithm proprietary to Cutech Srl.
Columns marked with “**” were highly significant (p<0.05) with respect to untreated samples and with respect to samples administered vehicle alone (DMSO.

For experiment [5], the system named is explanted skin tissue. The experiment can be described thus: Ex vivo skin explant HA score (alcian blue stain, image analysis). In kind it is cell-based, human. Conditions: for HA score, Mean: days 0, 1, 2, 5, 7. The protocol: as §2, §3, §4, §5
Columns marked with “**” were highly significant (p<0.05) with respect to untreated samples and with respect to samples administered vehicle alone (DMSO).

`CC(=O)NC(CCS(C)(=O)=O)C(=O)NC(C(=O)NC(C(=O)O)C(C)C)C(C)C` (stereo not drawn) [Ac-M(O)2VV] (Ac-[Met(O2)]-Val-Val-OH; configuration not given here): the HA % change in experiment [1] (0.00001 wt %) is reported as 10.33%; in experiment [1] (0.0001 wt %), 7.31%; in experiment [1] (0.0005 wt %), 7.90%; in experiment [1] (0.001 wt %) it was 11.04%. The Collagen % change in experiment [2] (0.00001 wt %) is recorded as 12.29%; in experiment [2] (0.0001 wt %), 11.29%; in experiment [2] (0.0005 wt %) it was −0.56%; in experiment [2] (0.001 wt %) it was 13.65%. The “% HA change” value was determined as 1.386% in experiment [3] (0.002% (20 ppm) in DMSO) and 12.47% in experiment [3] (0.01% (100 ppm) in DMSO). Moreover, the “Collagen score % Change Over DMSO” value in experiment [4] (5 ppm) came out at 73%; in experiment [4] (10 ppm) it was 75%; in experiment [4] (100 ppm), 52%. Further, the figures for the “Collagen score % Change Over Untreated” value in experiment [4] (5 ppm), in experiment [4] (10 ppm) and in experiment [4] (100 ppm) were 57%, 59% and 35%, respectively. Also, the “Collagen score, Mean” value was found to be 61.7 in experiment [4] (5 ppm in DMSO), 61.9 in experiment [4] (10 ppm in DMSO) and 59.6 in experiment [4] (100 ppm in DMSO). The “HA score % Change Over DMSO” value in experiment [5] (5 ppm) was −7%; in experiment [5] (10 ppm), 25%; in experiment [5] (100 ppm), 9%. Further, the “HA score % Change Over Untreated” value in experiment [5] (5 ppm) was −4%; in experiment [5] (10 ppm), 28%; in experiment [5] (100 ppm) it was 12%. Moreover, the “HA score, Mean” value turned out to be 9.5 in experiment [5] (5 ppm in DMSO), 12.7 in experiment [5] (10 ppm in DMSO) and 11.1 in experiment [5] (100 ppm in DMSO).

As to `CC(C)C(NC(=O)C(NC(=O)C(N)CCS(C)(=O)=O)C(C)C)C(=O)O` (stereo not drawn) [M(O)2VV, methionine sulfone valine valine] (H-[Met(O2)]-Val-Val-OH; configuration not given here), the HA % change in experiment [1] (0.00001 wt %) worked out at 14.01%; in experiment [1] (0.0001 wt %) it was 17.49%; in experiment [1] (0.0005 wt %), 10.25%; in experiment [1] (0.001 wt %), 19.43%. In addition, the Collagen % change is listed as 5.74% in experiment [2] (0.00001 wt %), 12.51% in experiment [2] (0.0001 wt %), 1.56% in experiment [2] (0.0005 wt %) and 6.07% in experiment [2] (0.001 wt %). The “% HA change” value amounted to 6.236% in experiment [3] (0.002% (20 ppm) in DMSO) and 10.28% in experiment [3] (0.01% (100 ppm) in DMSO). Further, the “Collagen score % Change Over DMSO” value in experiment [4] (5 ppm) is −7%; in experiment [4] (10 ppm), 35%; in experiment [4] (100 ppm), 13%. In addition, the results for the “Collagen score % Change Over Untreated” value in experiment [4] (5 ppm), in experiment [4] (10 ppm) and in experiment [4] (100 ppm) were −25%, 18% and −5%, respectively. Besides, the “Collagen score, Mean” value in experiment [4] (5 ppm in DMSO) was 53.6; in experiment [4] (10 ppm in DMSO) it was 57.9; in experiment [4] (100 ppm in DMSO), 55.6. For the same molecule, the “HA score % Change Over DMSO” value in experiment [5] (5 ppm) is listed as 18%; in experiment [5] (10 ppm), 14%; in experiment [5] (100 ppm), −4%. The “HA score % Change Over Untreated” value in experiment [5] (5 ppm) is given as 21%; in experiment [5] (10 ppm) it was 17%; in experiment [5] (100 ppm), −1%. Also, the “HA score, Mean” value is reported as 12 in experiment [5] (5 ppm in DMSO), 11.6 in experiment [5] (10 ppm in DMSO) and 9.8 in experiment [5] (100 ppm in DMSO).

Regarding `CC(=O)NC(CC[S+](C)[O-])C(=O)NC(C(=O)NC(C(=O)O)C(C)C)C(C)C` (stereo not drawn) [Ac-M(O)VV] (Ac-[Met(O)]-Val-Val-OH; configuration not given here), the HA % change in experiment [1] (0.00001 wt %) is listed as 17.50%; in experiment [1] (0.0001 wt %), 16.95%; in experiment [1] (0.0005 wt %), 17.69%; in experiment [1] (0.001 wt %), 21.87%. Moreover, the Collagen % change in experiment [2] (0.00001 wt %) is 7.20%; in experiment [2] (0.0001 wt %), 4.59%; in experiment [2] (0.0005 wt %), 14.02%; in experiment [2] (0.001 wt %), 13.49%.

As to “MVV (listed as Homo sapiens) [MW, reference compound]”, the HA % change came to 5.79% in experiment [1] (0.00001 wt %), 1.63% in experiment [1] (0.0001 wt %), 3.66% in experiment [1] (0.0005 wt %) and 9.00% in experiment [1] (0.001 wt %). The Collagen % change in experiment [2] (0.00001 wt %) is given as 7.22%; in experiment [2] (0.0001 wt %), 10.56%; in experiment [2] (0.0005 wt %) it was 31.22%; in experiment [2] (0.001 wt %), 6.22%.
